Our source for the IC50 values is US20050004130A1, “New metabotropic glutamate receptor compounds” (AstraZeneca and NPS Pharmaceuticals, Inc., priority 2003, published 2005).

In assay [1] the target is T1, recombinant mGluR1 (Homo sapiens, UniProt Q13255).
T1 construct: expressed in transfected cells
Kind of assay: Assay of Group I receptor antagonist activity (FLIPR [Ca2+]i mobilization; secondary IP3 turnover) in cells expressing mGluR1. It counts as cell-based. How it is done:
(§1) For FLIPR analysis, cells expressing human mGluR5d or recombinant mGluR1 as described in WO97/05252 were seeded on collagen coated clear bottom 96-well plates with black sides and analysis of [Ca^2+]i mobilization was done 24 h after seeding. FLIPR experiments were done using a laser setting of 0.800 W and a 0.4 second CCD camera shutter speed. Each FLIPR experiment was initiated with 160 μl of buffer present in each well of the cell plate. After each addition of the compound, the fluorescence signal was sampled 50 times at 1 second intervals followed by 3 samples at 5 second intervals. Responses were measured as the peak height of the response within the sample period. EC50 and IC50 determinations were made from data obtained from 8-point concentration response curves (CRC) performed in duplicate. Agonist CRC were generated by scaling all responses to the maximal response observed for the plate. […]
(§2) We have validated a secondary functional assay for mGluR5d or recombinant mGluR1 as described in WO97/05252 based on Inositol Phosphate (IP3) turnover. IP3 accumulation is measured as an index of receptor mediated phospholipase C turnover. […] Antagonist activity was determined by pre-incubating test compounds for 15 min, then incubating in the presence of glutamate (80 μM) or DHPG (30 μM) for 30 min. […]

In assay [2] the target is T2, human mGluR5d (Homo sapiens, UniProt P41594).
T2 construct: expressed in transfected cells
T2 sequence (P41594 21-942 isoform P41594-3 limits assumed): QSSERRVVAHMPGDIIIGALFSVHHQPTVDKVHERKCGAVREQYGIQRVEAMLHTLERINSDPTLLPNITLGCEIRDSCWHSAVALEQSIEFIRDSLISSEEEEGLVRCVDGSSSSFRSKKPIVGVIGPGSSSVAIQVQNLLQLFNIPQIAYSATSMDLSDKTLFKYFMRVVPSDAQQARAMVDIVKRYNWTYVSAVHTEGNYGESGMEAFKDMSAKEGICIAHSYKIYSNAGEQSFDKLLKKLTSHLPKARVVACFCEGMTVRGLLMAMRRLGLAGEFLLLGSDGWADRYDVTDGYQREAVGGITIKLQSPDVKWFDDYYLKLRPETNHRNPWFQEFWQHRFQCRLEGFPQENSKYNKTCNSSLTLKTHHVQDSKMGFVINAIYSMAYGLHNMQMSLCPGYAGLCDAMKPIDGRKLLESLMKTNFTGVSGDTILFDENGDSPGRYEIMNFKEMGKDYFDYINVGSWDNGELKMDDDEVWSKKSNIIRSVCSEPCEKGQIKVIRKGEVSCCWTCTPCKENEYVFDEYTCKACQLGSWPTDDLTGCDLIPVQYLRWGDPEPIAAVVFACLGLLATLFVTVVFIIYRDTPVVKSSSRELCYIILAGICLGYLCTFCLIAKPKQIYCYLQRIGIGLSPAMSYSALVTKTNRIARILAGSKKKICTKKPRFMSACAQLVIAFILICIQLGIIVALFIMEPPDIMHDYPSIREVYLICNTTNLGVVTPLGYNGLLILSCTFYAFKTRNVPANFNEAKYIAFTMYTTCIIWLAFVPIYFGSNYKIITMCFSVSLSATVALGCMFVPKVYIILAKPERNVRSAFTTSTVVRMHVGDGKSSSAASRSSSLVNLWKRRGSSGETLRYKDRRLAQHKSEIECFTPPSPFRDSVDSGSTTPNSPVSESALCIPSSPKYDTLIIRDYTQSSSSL
Kind of assay: Assay of Group I receptor antagonist activity (FLIPR [Ca2+]i mobilization; secondary IP3 turnover) in cells expressing mGluR5d. The settings on record: read-out: mGluR5 IC50. It counts as cell-based. How it is done: as §1, §2

As a reminder, the IC50 is the concentration that inhibits the measured activity by half.

T1 sequence (Q13255 19-1194): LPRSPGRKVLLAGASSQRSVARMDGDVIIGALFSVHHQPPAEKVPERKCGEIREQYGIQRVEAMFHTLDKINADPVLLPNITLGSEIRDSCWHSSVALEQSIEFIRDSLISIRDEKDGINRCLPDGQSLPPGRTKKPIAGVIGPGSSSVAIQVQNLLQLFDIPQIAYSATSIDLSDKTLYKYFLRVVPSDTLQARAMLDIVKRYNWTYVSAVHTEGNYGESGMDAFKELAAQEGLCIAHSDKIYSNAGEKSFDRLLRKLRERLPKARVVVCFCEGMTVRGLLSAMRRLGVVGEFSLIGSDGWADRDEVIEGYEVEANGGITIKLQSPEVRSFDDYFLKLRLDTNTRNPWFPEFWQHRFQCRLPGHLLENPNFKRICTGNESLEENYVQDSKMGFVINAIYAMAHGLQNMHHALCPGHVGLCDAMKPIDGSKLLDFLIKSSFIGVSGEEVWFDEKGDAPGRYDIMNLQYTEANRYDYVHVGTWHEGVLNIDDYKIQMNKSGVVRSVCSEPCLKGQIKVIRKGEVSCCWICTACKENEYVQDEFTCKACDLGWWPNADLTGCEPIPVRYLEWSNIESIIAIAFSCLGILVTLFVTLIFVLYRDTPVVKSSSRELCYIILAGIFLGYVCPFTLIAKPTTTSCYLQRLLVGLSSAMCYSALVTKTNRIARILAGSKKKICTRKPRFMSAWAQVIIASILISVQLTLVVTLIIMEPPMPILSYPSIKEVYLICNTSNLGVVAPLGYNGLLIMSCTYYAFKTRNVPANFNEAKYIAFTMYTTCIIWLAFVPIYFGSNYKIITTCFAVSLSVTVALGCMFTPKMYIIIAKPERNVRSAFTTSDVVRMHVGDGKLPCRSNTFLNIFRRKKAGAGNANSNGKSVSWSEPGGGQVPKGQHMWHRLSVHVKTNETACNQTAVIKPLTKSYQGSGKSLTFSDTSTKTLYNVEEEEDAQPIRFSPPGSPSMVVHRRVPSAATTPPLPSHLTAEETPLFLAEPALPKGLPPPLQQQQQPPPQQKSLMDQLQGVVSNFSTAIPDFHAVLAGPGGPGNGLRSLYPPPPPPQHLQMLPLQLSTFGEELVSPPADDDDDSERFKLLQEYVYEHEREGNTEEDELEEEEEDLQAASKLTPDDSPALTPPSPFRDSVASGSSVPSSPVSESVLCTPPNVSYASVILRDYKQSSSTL

Turning to `CC1CCc2nc(C(=O)N[C@H]3CC[C@H](C)CC3)cnc2C1` (relative stereo) [6-methyl-N-(trans-4-methylcyclohexyl)-5,6,7,8-tetrahydroquinoxaline-2-carboxamide], the IC50 in assay [1] was found to be 0.052 µM; in assay [2] it was 7.29 µM.
